Source: ChEMBL document CHEMBL5724914, “Linking interpersonal differences in gut microbiota composition and drug biotransformation activity” (2024)

Columns and labels:
[1] = (§1) The drug is tested on Z-027 corresponding to metagenome with ENA study accession number: PRJEB37062 and ENA sample accession number: ERS12561826 for biotransformation under anaerobic condition. The drug concentrations were measured over 9 timepoints collected between 0 and 24 hours of incubation by liquid-chromatography-coupled mass spectrometry (LC–MS); details: 2 µM
[2] = (§2) The drug is tested on WLS-007 corresponding to human gut metagenome with ENA study accession number: PRJEB37062 and ENA sample accession number: ERS12561742 for biotransformation under anaerobic condition. The drug concentrations were measured over 9 timepoints collected between 0 and 24 hours of incubation by liquid-chromatography-coupled mass spectrometry (LC–MS); details: 2 µM
[3] = as §2, with “Z-030” for “WLS-007”, “mouse” for “human”, “ERS12561829” for “ERS12561742”; details: 2 µM
[4] = as §1, with “Z-026” for “Z-027”, “ERS12561825” for “ERS12561826”; details: 2 µM
[5] = as §2, with “WLS-027” for “WLS-007”, “ERS12561744” for “ERS12561742”; details: 2 µM
[6] = human gut metagenome, 24 h, 2 µM
[7] = human gut metagenome, 24 h, 2 µM; remark: listed apart in the source
[8] = as §1, with “Z-021” for “Z-027”, “ERS12561820” for “ERS12561826”; details: 2 µM
[9] = human gut metagenome, 24 h, 2 µM; remark: listed apart in the source
[10] = as §2, with “Z-014” for “WLS-007”, “rat” for “human”, “ERS12561814” for “ERS12561742”; details: 2 µM
[11] = human gut metagenome, 24 h, 2 µM; remark: listed apart in the source
[12] = human gut metagenome, 24 h, 2 µM; remark: listed apart in the source
[13] = human gut metagenome, 24 h, 2 µM; remark: listed apart in the source
[14] = as §2, with “WLS-310” for “WLS-007”, “ERS12561785” for “ERS12561742”; details: 2 µM
[15] = as §2, with “WLS-006” for “WLS-007”, “ERS12561741” for “ERS12561742”; details: 2 µM
[16] = human gut metagenome, 24 h, 2 µM; remark: listed apart in the source
[17] = as §2, with “WLS-086” for “WLS-007”, “ERS12561752” for “ERS12561742”; details: 2 µM
[18] = human gut metagenome, 24 h, 2 µM; remark: listed apart in the source
[19] = as §2, with “Z-025” for “WLS-007”, “rabbit” for “human”, “ERS12561824” for “ERS12561742”; details: 2 µM
[20] = as §2, with “WLS-220” for “WLS-007”, “ERS12561769” for “ERS12561742”; details: 2 µM
Also: call rule not given here.

Structure (SMILES)	Bacterial Biotransformation [1]	Bacterial Biotransformation [2]	Bacterial Biotransformation [3]	Bacterial Biotransformation [4]	Bacterial Biotransformation [5]	Bacterial Biotransformation [6]	Bacterial Biotransformation [7]	Bacterial Biotransformation [8]	Bacterial Biotransformation [9]	Bacterial Biotransformation [10]	Bacterial Biotransformation [11]	Bacterial Biotransformation [12]	Bacterial Biotransformation [13]	Bacterial Biotransformation [14]	Bacterial Biotransformation [15]	Bacterial Biotransformation [16]	Bacterial Biotransformation [17]	Bacterial Biotransformation [18]	Bacterial Biotransformation [19]	Bacterial Biotransformation [20]
COc1ccccc1OCCNCC(O)COc1cccc2[nH]c3ccccc3c12 (stereo not given) [CARVEDILOL]	Compound NOT metabolized	Compound NOT metabolized	Compound NOT metabolized	Compound NOT metabolized	Compound metabolized	Compound metabolized	Compound metabolized	Compound NOT metabolized	Compound metabolized	Compound NOT metabolized	Compound metabolized	Compound metabolized	Compound NOT metabolized	Compound metabolized	Compound metabolized	Compound metabolized	Compound metabolized	Compound metabolized	Compound metabolized	Compound metabolized
CC(C)(C)NCC(O)c1cc(Cl)c(N)c(Cl)c1 (stereo not given) [CLENBUTEROL]	Compound NOT metabolized	Compound NOT metabolized	Compound NOT metabolized	Compound NOT metabolized	Compound NOT metabolized	Compound NOT metabolized	Compound NOT metabolized	Compound NOT metabolized	Compound NOT metabolized	Compound NOT metabolized	Compound NOT metabolized	Compound NOT metabolized	Compound NOT metabolized	Compound NOT metabolized	Compound NOT metabolized	Compound NOT metabolized	Compound NOT metabolized	Compound NOT metabolized	Compound NOT metabolized	Compound NOT metabolized
C[N+]12CCC(CC1)C(OC(=O)C(O)(c1ccccc1)c1ccccc1)C2.[Br-] (stereo not given) [CLIDINIUM BROMIDE]	Compound NOT metabolized	Compound NOT metabolized	Compound NOT metabolized	Compound NOT metabolized	Compound NOT metabolized	Compound metabolized	Compound metabolized	Compound NOT metabolized	Compound NOT metabolized	Compound NOT metabolized	Compound NOT metabolized	Compound metabolized	Compound metabolized	Compound NOT metabolized	Compound NOT metabolized	Compound NOT metabolized	Compound metabolized	Compound NOT metabolized	Compound NOT metabolized	Compound NOT metabolized
Clc1cccc(Cl)c1N=C1NCCN1 [CLONIDINE]	Compound NOT metabolized	Compound NOT metabolized	Compound NOT metabolized	Compound NOT metabolized	Compound NOT metabolized	Compound metabolized	Compound metabolized	Compound NOT metabolized	Compound metabolized	Compound NOT metabolized	Compound metabolized	Compound metabolized	Compound NOT metabolized	Compound metabolized	Compound metabolized	Compound metabolized	Compound metabolized	Compound NOT metabolized	Compound NOT metabolized	Compound metabolized
COC(=O)[C@H](c1ccccc1Cl)N1CCc2sccc2C1.O=S(=O)(O)O [CLOPIDOGREL BISULFATE]	Compound metabolized	Compound metabolized	Compound NOT metabolized	Compound metabolized	Compound NOT metabolized	Compound metabolized	Compound metabolized	Compound metabolized	Compound metabolized	Compound NOT metabolized	Compound metabolized	Compound metabolized	Compound metabolized	Compound metabolized	Compound metabolized	Compound metabolized	Compound metabolized	Compound metabolized	Compound metabolized	Compound metabolized
O=P1(N(CCCl)CCCl)NCCCO1 (stereo not given) [CYCLOPHOSPHAMIDE ANHYDROUS]	Compound NOT metabolized	Compound NOT metabolized	Compound NOT metabolized	Compound NOT metabolized	Compound NOT metabolized	Compound metabolized	Compound metabolized	Compound NOT metabolized	Compound metabolized	Compound NOT metabolized	Compound metabolized	Compound metabolized	Compound NOT metabolized	Compound metabolized	Compound NOT metabolized	Compound metabolized	Compound metabolized	Compound NOT metabolized	Compound NOT metabolized	Compound metabolized
Br.COc1ccc2c(c1)[C@]13CCCC[C@@H]1[C@H](C2)N(C)CC3.O [DEXTROMETHORPHAN HYDROBROMIDE]	Compound NOT metabolized	Compound NOT metabolized	Compound NOT metabolized	Compound NOT metabolized	Compound metabolized	Compound metabolized	Compound NOT metabolized	Compound metabolized	Compound metabolized	Compound NOT metabolized	Compound metabolized	Compound metabolized	Compound NOT metabolized	Compound metabolized	Compound metabolized	Compound NOT metabolized	Compound metabolized	Compound metabolized	Compound metabolized	Compound metabolized
CCN(CC)CCOC(=O)C1(C2CCCCC2)CCCCC1 [DICYCLOMINE]	Compound NOT metabolized	Compound metabolized	Compound NOT metabolized	Compound NOT metabolized	Compound metabolized	Compound metabolized	Compound metabolized	Compound NOT metabolized	Compound metabolized	Compound NOT metabolized	Compound metabolized	Compound metabolized	Compound NOT metabolized	Compound metabolized	Compound metabolized	Compound metabolized	Compound metabolized	Compound metabolized	Compound NOT metabolized	Compound NOT metabolized
